Assay results reported in patent US10085937B2, “Nasal drug products and methods of their use” (Adapt Pharma Limited, priority 2014, dated 2018).
Read-outs that look alike come from different tables or passages of the source.

Experiments:
[1] = for Lambda z: harmonic mean; for Tmax: median; for λz: geometric mean (CV %)
mouse = settings: intravenous; cited from earlier work
[2] = Safety of intranasal naloxone: nasal irritation, vital signs, ECG, clinical laboratory (Study 1); format: in vivo, human
Protocol: These vital signs and temperature were also measured at screening, clinic intake, one day after each dosing session and at follow-up. […] AEs were recorded from the start of study-drug administration until clinic discharge. […] Clinical laboratory measurements were done prior to the first drug administration and on the day of clinic release.
Statistical Analysis of Adverse Events: AEs were coded using the Medical Dictionary for Regulatory Activities (MedDRA), version 19. Preferred terms and are grouped by system, organ, class (SOC) designation. AEs are presented as a listing including the start date, stop date, severity, relationship, outcome, and duration.

newborn rats = settings: acute subcutaneous; cited from earlier work
rat = settings: intravenous; cited from earlier work
clinical = settings: human, plasma; for AUC(0-t): AUC0-t; for AUC(0-t) / AUC(0-inf) / Cmax: geometric mean (CV %); for AUC(0-inf): AUC0-∞; for Tmax: Table 13
[3] = Safety of intranasal naloxone: adverse events, nasal irritation, vital signs, ECG (Study 2)
[4] = for Cmax/D: GLSM, dose adjustment to 0.4 mg; for λz / Frel: mean
[5] = im, 0.4 mg, One Injection 0.4 mg IM
[6] = other: intranasal (IN), 2 mg, One Spray 2% (w/v) IN
[7] = other: intranasal (IN), 4 mg, One Spray 4% (w/v) IN
[8] = other: intranasal, 2 mg, One Spray 2% (w/v) IN
[9] = other: intranasal, 4 mg, One Spray 4% (w/v) IN
[10] = other: intranasal, 4 mg, Two Sprays 2% (w/v) IN
[11] = other: intranasal, 8 mg, Two Sprays 4% (w/v) IN

Structure (SMILES): C=CCN1CC[C@]23c4c5ccc(O)c4O[C@H]2C(=O)CC[C@@]3(O)[C@H]1C5 [naloxone, 17-allyl-4,5α-epoxy-3,14-dihydroxymorphinan-6-one]
- Lambda z ([1]; 0.4 mg IM, Female): 0.6140 h⁻¹
- Lambda z ([1]; 0.4 mg IM, Male): 0.5152 h⁻¹
- Tmax ([1]; 0.4 mg IM, Male): 30 min
- Lambda z ([1]; 0.4 mg IM): 0.5534 h⁻¹
- Lambda z ([1]; One 2% (w/v) IN, Female): 0.3978 h⁻¹
- Lambda z ([1]; One 2% (w/v) IN, Male): 0.3492 h⁻¹
- Lambda z ([1]; One 4% (w/v) IN, Female): 0.2946 h⁻¹
- Tmax ([1]; One 4% (w/v) IN, Female): 30 min
- Lambda z ([1]; One 4% (w/v) IN, Male): 0.3386 h⁻¹
- Tmax ([1]; One 4% (w/v) IN, Male): 30 min
- λz ([1]; One Injection 0.4 mg IM): 0.557 (25.9) 1/h
- λz ([1]; One Spray 2% (w/v) IN): 0.382 (34.9) 1/h
- λz ([1]; One Spray 4% (w/v) IN): 0.334 (29.5) 1/h
- Lambda z ([1]; Two 2% (w/v) IN, Female): 0.2796 h⁻¹
- Lambda z ([1]; Two 2% (w/v) IN, Male): 0.3122 h⁻¹
- Lambda z ([1]; Two 4% (w/v) IN, Female): 0.2994 h⁻¹
- Lambda z ([1]; Two 4% (w/v) IN, Male): 0.3407 h⁻¹
- λz ([1]; Two Sprays 2% (w/v) IN): 0.310 (34.5) 1/h
- λz ([1]; Two Sprays 4% (w/v) IN): 0.330 (32.4) 1/h
- Lambda z ([1]; one spray 2 mg 2% (w/v) IN): 0.3685 h⁻¹
- Lambda z ([1]; two sprays 4 mg 2% (w/v) IN): 0.2973 h⁻¹
- Lambda z ([1]; two sprays 8 mg 4% (w/v) IN): 0.3217 h⁻¹
- LD50 (mouse): 150 ± 5 mg/kg
- pharyngeal pain ([2]; 2 mg IN dose): One subject experienced mild transient (over 3 min) pharyngeal pain
- nasal irritation (erythema, edema, erosion) in the nasal cavity ([2]; IN 2 and 4 mg to both nostrils): No erythema, edema, erosion, or other sign was observed
- QTcF prolongation ([2]; Study 1): no evidence of QTcF prolongation
- vital signs, ECG, and clinical laboratory parameters ([2]; after naloxone administration, Study 1): did not reveal any clinically noteworthy changes
- LD50 (95% CL) (newborn rats): 260 (228-296) mg/kg
- LD50 (rat): 109 ± 4 mg/kg
- AUC(0-t) (clinical; [5]): 1.72 ng·h/mL
- AUC(0-inf) (clinical; [5]): 1.76 ng·h/mL
- Cmax (clinical; [5]): 0.877 ng/mL
- Tmax (clinical; [5]): 22.8 min
- AUC(0-t) (clinical; [6]): 4.51 ng·h/mL
- AUC(0-inf) (clinical; [6]): 4.56 ng·h/mL
- AUC(0-t) (clinical; [7]): 7.87 ng·h/mL
- AUC(0-inf) (clinical; [7]): 7.95 ng·h/mL
- AUC(0-inf) (clinical; other: intranasal (IN), 8 mg, Two Sprays 4% (w/v) IN): 15.5 ng·h/mL
- Cmax (clinical; [8]): 2.92 ng/mL
- Tmax (clinical; [8]): 19.8 min
- Cmax (clinical; [9]): 4.83 ng/mL
- Cmax (clinical; [10]): 6.2 ng/mL
- Tmax (clinical; [9]): 30 min
- Tmax (clinical; [10]): 19.8 min
- Cmax (clinical; [11]): 9.7 ng/mL
- Tmax (clinical; [11]): 19.8 min
- adverse events: Dizziness ([3]; 0.4 mg Intramuscular Dose): 1
- adverse events: Headache ([3]; 0.4 mg Intramuscular Dose): 1
- adverse events: Nausea ([3]; 0.4 mg Intramuscular Dose): 1
- Events related to nasal irritation: Edema ([3]; 2 mg (2% w/v, one spray)): 2
- Events related to nasal irritation: Erythema ([3]; 2 mg (2% w/v, one spray)): 4
- Events related to nasal irritation: Other ([3]; 2 mg (2% w/v, one spray)): 1
- Events related to nasal irritation: Total ([3]; 2 mg (2% w/v, one spray)): 7
- adverse events: Nasal Pain ([3]; 2 mg (2% w/v, one spray)): 1
- Events related to nasal irritation: Edema ([3]; 4 mg (2% w/v, two sprays)): 0
- Events related to nasal irritation: Erythema ([3]; 4 mg (2% w/v, two sprays)): 1
- Events related to nasal irritation: Other ([3]; 4 mg (2% w/v, two sprays)): 0
- Events related to nasal irritation: Total ([3]; 4 mg (2% w/v, two sprays)): 1
- Events related to nasal irritation: Edema ([3]; 4 mg (4% w/v, one spray)): 2
- Events related to nasal irritation: Erythema ([3]; 4 mg (4% w/v, one spray)): 1
- Events related to nasal irritation: Other ([3]; 4 mg (4% w/v, one spray)): 0
- Events related to nasal irritation: Total ([3]; 4 mg (4% w/v, one spray)): 3
- Events related to nasal irritation: Edema ([3]; 8 mg (4% w/v, two sprays)): 1
- Events related to nasal irritation: Erythema ([3]; 8 mg (4% w/v, two sprays)): 0
- Events related to nasal irritation: Other ([3]; 8 mg (4% w/v, two sprays)): 0
- Events related to nasal irritation: Total ([3]; 8 mg (4% w/v, two sprays)): 1
- adverse events: Headache ([3]; 8 mg (4% w/v, two sprays)): 1
- relation of nasal irritation to dose ([3]; IN 2 to 8 mg): did not appear to be positively related to the dose
- QTcF prolongation ([3]; Study 2): no evidence of QTcF prolongation
- vital signs, ECG, and clinical laboratory parameters ([3]; after naloxone administration, Study 2): did not reveal any clinically noteworthy changes
- Cmax/D ([4]; 0.4 mg IM): 0.755 ng/mL
- λz ([4]; 0.4 mg IM): 0.593 h⁻¹
- Frel ([4]; 2 mg IN vs IM): 0.571
- Cmax/D ([4]; 2 mg IN): 0.510 ng/mL
- λz ([4]; 2 mg IN): 0.588 h⁻¹
- Frel ([4]; 4 mg IN vs IM): 0.475
- Cmax/D ([4]; 4 mg IN): 0.466 ng/mL
- λz ([4]; 4 mg IN): 8.0 h⁻¹
